According to patent US8076487B2, “Pyridone derivative and herbicide” (Kumiai Chemical Industry Co., Ltd., priority 2006, dated 2011):

What was measured:
Assay in all cases: Test Example 1: herbicidal effect by soil application to paddy field
Type in all cases: in vivo
Conditions in all cases: paddy field soil application; active ingredient 1,000 g per 1 hectare; wettable powder added dropwise to water surface the day after sowing; examined on the 21st day after application
[1] = tested on: Japanese bulrush (Scirpus juncoides Roxb.)
Source text: (§1) Test Example 1 Test on Herbicidal Effect by Soil Application to Paddy Field In a 100 cm2 plastic pot, paddy field soil was filled. After puddling and leveling, seeds of early watergrass (Echinochloa oryzicola […] (Monochoria vaginalis ([…] Japanese bulrush (Scirpus juncoides Roxb.) were sown, and water was filled to be flooded to a water depth of 3 cm. […] Then, on the 21st day after the application to the plants grew in a greenhouse, the herbicidal effect was examined in accordance with a standard shown in Table 34. [table]

[2] = tested on: early watergrass (Echinochloa oryzicola Vasing)
Source text: as §1

[3] = tested on: heartshape false pickerelweed (Monochoria vaginalis (Burm.f.) C.Presl)
Source text: as §1

SMILES	herbicidal effect, Scirpus juncoides Roxb. [1]	herbicidal effect, Echinochloa oryzicola Vasing [2]	herbicidal effect, Monochoria vaginalis (Burm. f.) C. Presl [3]
COCn1c(C(F)(F)F)ccc(C(=O)C2=C(O)CCCC2=O)c1=O [I-30]	3 (50 to less than 70% of herbicidal effect and crop phytotoxicity)	3 (50 to less than 70% of herbicidal effect and crop phytotoxicity)	5 (90% or more of herbicidal effect and crop phytotoxicity)
O=C1CCCC(O)=C1C(=O)c1ccc(C(F)(F)F)n(CS(=O)(=O)C2CCCCC2)c1=O [I-62]	4 (70 to less than 90% of herbicidal effect and crop phytotoxicity)	5 (90% or more of herbicidal effect and crop phytotoxicity)	5 (90% or more of herbicidal effect and crop phytotoxicity)
O=C1CCCC(O)=C1C(=O)c1ccc(C(F)(F)F)n(CS(=O)(=O)CC(F)(F)F)c1=O [I-64]	5 (90% or more of herbicidal effect and crop phytotoxicity)	4 (70 to less than 90% of herbicidal effect and crop phytotoxicity)	5 (90% or more of herbicidal effect and crop phytotoxicity)
COc1cccc(-n2c(C(F)(F)F)ccc(C(=O)C3=C(O)CCCC3=O)c2=O)c1 [I-77]	5 (90% or more of herbicidal effect and crop phytotoxicity)	5 (90% or more of herbicidal effect and crop phytotoxicity)	5 (90% or more of herbicidal effect and crop phytotoxicity)
O=C1CCCC(O)=C1C(=O)c1ccc(C(F)(F)F)n(-c2ccc(NS(=O)(=O)C(F)(F)F)cc2)c1=O [I-97]	4 (70 to less than 90% of herbicidal effect and crop phytotoxicity)	4 (70 to less than 90% of herbicidal effect and crop phytotoxicity)	5 (90% or more of herbicidal effect and crop phytotoxicity)
O=C1CCCC(O)=C1C(=O)c1ccc(C(F)(F)F)n(Cc2ccccc2[N+](=O)[O-])c1=O [I-115]	5 (90% or more of herbicidal effect and crop phytotoxicity)	5 (90% or more of herbicidal effect and crop phytotoxicity)	5 (90% or more of herbicidal effect and crop phytotoxicity)
O=C1CCCC(O)=C1C(=O)c1ccc(C(F)(F)F)n(Cc2ccc([N+](=O)[O-])cc2)c1=O [I-117]	5 (90% or more of herbicidal effect and crop phytotoxicity)	5 (90% or more of herbicidal effect and crop phytotoxicity)	5 (90% or more of herbicidal effect and crop phytotoxicity)
COc1ccccc1Cn1c(C(F)(F)F)ccc(C(=O)C2=C(O)CCCC2=O)c1=O [I-120]	5 (90% or more of herbicidal effect and crop phytotoxicity)	5 (90% or more of herbicidal effect and crop phytotoxicity)	5 (90% or more of herbicidal effect and crop phytotoxicity)
COc1cccc(Cn2c(C(F)(F)F)ccc(C(=O)C3=C(O)CCCC3=O)c2=O)c1 [I-121]	5 (90% or more of herbicidal effect and crop phytotoxicity)	5 (90% or more of herbicidal effect and crop phytotoxicity)	5 (90% or more of herbicidal effect and crop phytotoxicity)
COc1ccc(Cn2c(C(F)(F)F)ccc(C(=O)C3=C(O)CCCC3=O)c2=O)cc1 [I-122]	5 (90% or more of herbicidal effect and crop phytotoxicity)	5 (90% or more of herbicidal effect and crop phytotoxicity)	5 (90% or more of herbicidal effect and crop phytotoxicity)
CS(=O)(=O)c1ccc(Cn2c(C(F)(F)F)ccc(C(=O)C3=C(O)CCCC3=O)c2=O)cc1 [I-123]	5 (90% or more of herbicidal effect and crop phytotoxicity)	5 (90% or more of herbicidal effect and crop phytotoxicity)	5 (90% or more of herbicidal effect and crop phytotoxicity)
CCCCCCNn1c(C(F)(F)F)ccc(C(=O)C2=C(O)CCCC2=O)c1=O [I-166]	5 (90% or more of herbicidal effect and crop phytotoxicity)	5 (90% or more of herbicidal effect and crop phytotoxicity)	5 (90% or more of herbicidal effect and crop phytotoxicity)
CCCCN(CCCC)n1c(C(F)(F)F)ccc(C(=O)C2=C(O)CCCC2=O)c1=O [I-174]	5 (90% or more of herbicidal effect and crop phytotoxicity)	5 (90% or more of herbicidal effect and crop phytotoxicity)	5 (90% or more of herbicidal effect and crop phytotoxicity)
CCOC(=O)Nn1c(C(F)(F)F)ccc(C(=O)C2=C(O)CCCC2=O)c1=O [I-192]	5 (90% or more of herbicidal effect and crop phytotoxicity)	5 (90% or more of herbicidal effect and crop phytotoxicity)	5 (90% or more of herbicidal effect and crop phytotoxicity)
CC(C)(C)OC(=O)Nn1c(C(F)(F)F)ccc(C(=O)C2=C(O)CCCC2=O)c1=O [I-193]	5 (90% or more of herbicidal effect and crop phytotoxicity)	5 (90% or more of herbicidal effect and crop phytotoxicity)	5 (90% or more of herbicidal effect and crop phytotoxicity)
CN(C(=O)OC(C)(C)C)n1c(C(F)(F)F)ccc(C(=O)C2=C(O)CCCC2=O)c1=O [I-194]	5 (90% or more of herbicidal effect and crop phytotoxicity)	5 (90% or more of herbicidal effect and crop phytotoxicity)	5 (90% or more of herbicidal effect and crop phytotoxicity)
O=C(Nn1c(C(F)(F)F)ccc(C(=O)C2=C(O)CCCC2=O)c1=O)OCc1ccccc1 [I-196]	4 (70 to less than 90% of herbicidal effect and crop phytotoxicity)	5 (90% or more of herbicidal effect and crop phytotoxicity)	5 (90% or more of herbicidal effect and crop phytotoxicity)
CN(C(=O)OCc1ccccc1)n1c(C(F)(F)F)ccc(C(=O)C2=C(O)CCCC2=O)c1=O [I-197]	5 (90% or more of herbicidal effect and crop phytotoxicity)	5 (90% or more of herbicidal effect and crop phytotoxicity)	5 (90% or more of herbicidal effect and crop phytotoxicity)
Cn1c(C(F)(F)Cl)ccc(C(=O)C2=C(O)CCCC2=O)c1=O [I-225]	5 (90% or more of herbicidal effect and crop phytotoxicity)	5 (90% or more of herbicidal effect and crop phytotoxicity)	5 (90% or more of herbicidal effect and crop phytotoxicity)
CC(C)c1ccc(C(=O)C2=C(O)CCCC2=O)c(=O)n1-c1ccccc1 [I-232]	5 (90% or more of herbicidal effect and crop phytotoxicity)	5 (90% or more of herbicidal effect and crop phytotoxicity)	5 (90% or more of herbicidal effect and crop phytotoxicity)
Cc1ccc(C(=O)C2=C(O)CCCC2=O)c(=O)n1-c1cccc(C(F)(F)F)c1 [I-235]	5 (90% or more of herbicidal effect and crop phytotoxicity)	5 (90% or more of herbicidal effect and crop phytotoxicity)	5 (90% or more of herbicidal effect and crop phytotoxicity)
Cc1ccc(C(=O)C2=C(O)CCCC2=O)c(=O)n1-c1ccc(C(F)(F)F)cc1 [I-236]	5 (90% or more of herbicidal effect and crop phytotoxicity)	5 (90% or more of herbicidal effect and crop phytotoxicity)	5 (90% or more of herbicidal effect and crop phytotoxicity)
CC1CCC(=O)C(C(=O)c2ccc(C(F)(F)F)n(C)c2=O)=C1O (stereo not drawn) [II-1]	5 (90% or more of herbicidal effect and crop phytotoxicity)	5 (90% or more of herbicidal effect and crop phytotoxicity)	5 (90% or more of herbicidal effect and crop phytotoxicity)
